Reference: ChEMBL document CHEMBL5244223, “l,8-Naphthalimide based DNA intercalators and anticancer agents. A systematic review from 2007 to 2017” (Eur J Med Chem, 2018)

What was measured:
[1] = tested on: L1210; assay: Antiproliferative activity against mouse L1210 cells assessed as inhibition of cell proliferation incubated for 48 hrs by coulter counter assay; assay type: functional, cell-based; details: L1210, 48 h
[2] = tested on: CCRF-CEM; assay: Antiproliferative activity against human CEM cells assessed as inhibition of cell proliferation incubated for 48 hrs by coulter counter assay; assay type: functional, cell-based
[3] = tested on: HeLa; assay: Antiproliferative activity against human HeLa cells assessed as inhibition of cell proliferation incubated for 48 hrs by coulter counter assay; assay type: functional, cell-based
[4] = Antiproliferative activity against human HMEC-1 cells assessed as inhibition of cell proliferation incubated for 48 hrs by coulter counter assay; assay type: toxicity, cell-based
[5] = tested on: MDA-MB-231; assay: Antiproliferative activity against human MDA-MB-231 cells assessed as inhibition of cell proliferation incubated for 48 hrs by MTT assay; assay type: functional, cell-based; details: MDA-MB-231, 48 h
[6] = tested on: HepG2; assay: Antiproliferative activity against human HepG2 cells assessed as inhibition of cell proliferation incubated for 48 hrs by MTT assay; assay type: functional, cell-based; details: HepG2, 48 h
[7] = tested on: SMMC-7721; assay: Antiproliferative activity against human SMMC-7721 cells assessed as inhibition of cell proliferation incubated for 48 hrs by MTT assay; assay type: functional, cell-based; details: SMMC-7721, 48 h
[8] = tested on: A549; assay: Cytotoxicity against human A549 cells assessed as inhibition of cell growth incubated for 48 hrs by MTT assay; assay type: functional, cell-based; details: A549, 48 h
[9] = tested on: HeLa; assay: Cytotoxicity against human HeLa cells assessed as inhibition of cell growth incubated for 48 hrs by MTT assay; assay type: functional, cell-based
[10] = tested on: HCT-116; assay: Antiproliferative activity against human HCT-116 cells assessed as inhibition of cell proliferation incubated for 48 hrs by MTT assay; assay type: functional, cell-based; details: HCT-116, 48 h
[11] = tested on: K562; assay: Antiproliferative activity against human K562 cells assessed as inhibition of cell proliferation incubated for 48 hrs by MTT assay; assay type: functional, cell-based; details: K562, 48 h

IC50 [6] [µM]	IC50 [7] [µM]	SMILES	IC50 [8] [µM]	IC50 [9] [µM]	also measured
		CCOP(=O)(CCCn1cc(CN2C(=O)c3cccc4cc([N+](=O)[O-])cc(c34)C2=O)nn1)OCC			IC50 [1]: > 250 µM; IC50 [2]: > 250 µM; IC50 [3]: > 250 µM; IC50 at 48 h [4]: > 250 µM
1.12	1.12	CN(C)CCNc1ncnc2c1cc1c3c(cccc32)C(=O)N(CCN(C)C)C1=O			IC50 [5]: 1.12 µM
1.12	1.12	CN(C)CCN1C(=O)c2cccc3c2c(cc2c(NCCCN4CCOCC4)ncnc23)C1=O			IC50 [5]: 1.12 µM
		CCOP(=O)(Cn1cc(CN2C(=O)c3cccc4cc([N+](=O)[O-])cc(c34)C2=O)nn1)OCC			IC50 [1]: > 250 µM; IC50 [2]: > 250 µM; IC50 [3]: > 250 µM; IC50 at 48 h [4]: > 250 µM
		CCOP(=O)(CCn1cc(CN2C(=O)c3cccc4cccc(c34)C2=O)nn1)OCC			IC50 [1]: > 250 µM; IC50 [2]: > 250 µM; IC50 [3]: > 250 µM; IC50 at 48 h [4]: > 250 µM
		CCCCOc1cc(OCCCC)cc(-c2cc(C(F)(F)F)nn2-c2ccc3c4c(cccc24)C(=O)N(CCN(C)C)C3=O)c1	5.06	5.06	
		CCCOc1ccc(-c2cc(C(F)(F)F)nn2-c2ccc3c4c(cccc24)C(=O)N(CCN(C)C)C3=O)cc1	5.06	5.06	
1.57	1.57	CN(C)CCN1C(=O)c2cccc3c2c(cc2c(NCCCNCCCN)ncnc23)C1=O			IC50 [5]: 1.57 µM
> 50	> 50	CCCCOC(=O)c1ccc2c3c(cccc13)C(=O)N(CCN(C)C)C2=O			IC50 [10]: > 50 µM; IC50 [11]: > 50 µM
		CCOP(=O)(CCOCn1cc(CN2C(=O)c3cccc4cc([N+](=O)[O-])cc(c34)C2=O)nn1)OCC			IC50 [1]: > 250 µM; IC50 [2]: > 250 µM; IC50 [3]: > 250 µM; IC50 at 48 h [4]: > 250 µM
		COc1ccc(-c2cc(C(F)(F)F)nn2-c2ccc3c4c(cccc24)C(=O)N(CCN(C)C)C3=O)cc1	5.06	5.06	
		Cc1ccc(-c2cc(C(F)(F)F)nn2-c2ccc3c4c(cccc24)C(=O)N(CCN(C)C)C3=O)cc1	5.06	5.06	
1.12	1.12	CN(C)CCN1C(=O)c2cccc3c2c(cc2c(NCCCCN4CCCC4)ncnc23)C1=O			IC50 [5]: 1.12 µM
2.86		NCCCCNCCCCNCCCCNCC(=O)NCCCN1C(=O)c2cccc3cccc(c23)C1=O			IC50 [5]: 2.86 µM; IC50 [10]: 2.86 µM; IC50 [11]: 2.86 µM
		CCCCOc1ccc(-c2cc(C(F)(F)F)nn2-c2ccc3c4c(cccc24)C(=O)N(CCN(C)C)C3=O)cc1	5.06	5.06	
		COc1ccc(-c2cc(C(F)(F)F)nn2-c2ccc3c4c(cccc24)C(=O)N(CCN(C)C)C3=O)cc1OC	5.06	5.06	
1.61	1.61	NCCCNCCCN1C(=O)c2cccc3cccc(c23)C1=O			
		CCCCOc1cccc(-c2cc(C(F)(F)F)nn2-c2ccc3c4c(cccc24)C(=O)N(CCN(C)C)C3=O)c1	5.06	5.06	
		CCOc1cc(OCC)cc(-c2cc(C(F)(F)F)nn2-c2ccc3c4c(cccc24)C(=O)N(CCN(C)C)C3=O)c1	5.06	5.06	
		COc1ccccc1-c1cc(C(F)(F)F)nn1-c1ccc2c3c(cccc13)C(=O)N(CCN(C)C)C2=O	5.06	5.06	
		COc1cc(-c2cc(C(F)(F)F)nn2-c2ccc3c4c(cccc24)C(=O)N(CCN(C)C)C3=O)cc(OC)c1OC	5.06	5.06	
> 50	> 50	CCCCCCCCOC(=O)c1ccc2c3c(cccc13)C(=O)N(CCN(C)C)C2=O			IC50 [10]: > 50 µM; IC50 [11]: > 50 µM
		CN(C)CCN1C(=O)c2cccc3c(-n4nc(C(F)(F)F)cc4-c4ccccc4)ccc(c23)C1=O	5.06	5.06	
2.86		NCCCNCC(=O)NCCCN1C(=O)c2cccc3cccc(c23)C1=O			IC50 [5]: 2.86 µM; IC50 [10]: 2.86 µM; IC50 [11]: 2.86 µM
		CCCOc1cccc(-c2cc(C(F)(F)F)nn2-c2ccc3c4c(cccc24)C(=O)N(CCN(C)C)C3=O)c1	5.06	5.06	
2.64	2.64	NCCCNCCCN1C(=O)c2cccc3c2c(cc2c(=O)[nH]cnc23)C1=O			IC50 [5]: 2.64 µM
> 50	> 50	CCCCCCOC(=O)c1ccc2c3c(cccc13)C(=O)N(CCN(C)C)C2=O			IC50 [10]: > 50 µM; IC50 [11]: > 50 µM
		CCCOc1ccccc1-c1cc(C(F)(F)F)nn1-c1ccc2c3c(cccc13)C(=O)N(CCN(C)C)C2=O	5.06	5.06	
		CCOc1ccccc1-c1cc(C(F)(F)F)nn1-c1ccc2c3c(cccc13)C(=O)N(CCN(C)C)C2=O	5.06	5.06	
